Test results as given in patent publication US11058686B2, “5-(pyrimidin-4-yl)-2-(pyrrolidin-1-yl)nicotinonitrile compounds as IKKE, TBK1 and/or SIK2 kinases inhibitors” (DOMAINEX LIMITED, priority 2017, dated 2021).
Where two headings read alike, the source gives them in different places.

Columns and labels:
[1] = Human hepatocyte (liver cell) stability; type: in vitro ADME; details: intrinsic clearance, cryopreserved pooled human hepatocytes, 3 μM compound, 0-60 min; for Human Heps (μL/min/10^6 cells): Table 5, comparative examples; for Human hepatocyte stability (μL/min/10^6 cells): Table 4
Procedure: Commercially available cryopreserved pooled human hepatocytes were purchased and stored in liquid nitrogen prior to use. Williams E media supplemented with 2 mM L-glutamine and 25 mM HEPES and the appropriate test compound (final substrate concentration 3 μM; final DMSO concentration 0.25%) were pre-incubated at 37° C. prior to the addition of a suspension of cryopreserved human hepatocytes (final cell density 0.5×10^6 viable cells/mL in Williams E media supplemented with 2 mM L-glutamine and 25 mM HEPES) to initiate the reaction. The final incubation volume is 500 μL. Two control compounds were included in each test alongside the vehicle control, typically verapamil and umbelliferone.
The reactions were stopped after 0 min, 5 min, 20 min, 40 min and 60 min by transferring 50 μL of the incubate to 100 μL methanol containing an internal standard. The termination plates were subsequently centrifuged at 2500 rpm at 4° C. to precipitate the protein. Following protein precipitation the sample supernatants are combined in cassettes of up to 4 compounds and analysed by LC-MS/MS conditions.
The In peak area ratio (compound peak area/internal standard peak area) was plotted against time and the gradient of the line determined. Elimination rate constant (k)=−(gradient) Half life(t1/2)(min)=0.693/k V(μL/10^6 cells)=Incubation volume (μL)/number of cells in incubation (×10^6) Intrinsic Clearance(Clint)(μL/min/million cells)=V×0.693/t1/2
If the two control compounds are not within historical specified limits then the results are rejected and the experiment repeated.

[2] = Pharmacokinetic evaluation in female Balb-C mice after intravenous administration; type: in vivo; details: for half-life / t½: terminal half life in plasma (estimated); for half-life: read-out: t½ (converted); for Vd: Vd at steady state
Procedure: Pharmacokinetic evaluation was performed in female Balb-C mice. For intravenous administration (IV) compounds were typically dosed at 0.5 mg/Kg in a dose volume of 5 mL/Kg via the tail vein. Compounds were typically dosed in a vehicle of 5% DMSO/95% (Kelptose 20% w/v in phosphate buffered saline (PBS) pH 7.4). Other dosing vehicles known to those skilled in the art can also be used.
Blood samples were taken by cardiac puncture under terminal anaesthesia (isoflurane) at 8 time points between 1 minute and 10 hours following IV administration, typically 1 min, 5 min, 15 min, 30 min, 1 h, 3 h, 6 h and 10 h post dosing. In some instances 2 h, 4 h and 8 h were used for the final 3 time points due to greater convenience. N=3 animals were used per time point. Plasma was immediately obtained by centrifugation, and the resulting samples frozen until analysis. Samples, along with a calibration curve prepared by spiking the compounds into control plasma, were subsequently prepared for quantitative analysis by precipitation of the plasma proteins with acetonitrile. Analysis was by ultra-high performance liquid chromatography (Agilent 1290 system) coupled to time-of-flight mass spectrometry, using electrospray ionisation (Agilent 6550 system). Pharmacokinetic parameters were determined by non-compartmental analysis of mean concentration data using Phoenix WinNonlin v6.4
The volume of distribution (Vd) is the theoretical volume into which a drug appears to be distributed assuming it is present at the same concentration everywhere as it is in plasma.
The Vd at steady state (Vdss) is calculated by multiplying the clearance (Cl) by the mean residence time (MRT). Clearance is measured by dividing the dose by the Area under the concentration time curve. Cl=Dose/AUC0-∞ Vdss=Cl×MRT
The mean residence time is calculated by dividing the area under the second moment curve (AUMC) by the area under the concentration time curve (AUC). The second moment curve can be generated by plotting […] MRT=AUMC/AUC (ii) t1/2 in Mice (Estimated)
The compound half life (t1/2) is the time for the concentration of the drug to halve in the plasma. The terminal half life was typically estimated from the gradient of a log concentration/time plot using the last 3 points. Both the Cl and the Vd contribute to the observed half life. A larger Vd and smaller Cl gives a longer t1/2.

[3] = molecular target: T1, TBK1 (Homo sapiens, UniProt Q9UHD2); assay: TBK1 enzyme potency, time-resolved fluorescence Lanthascreen kinase assay; type: biochemical; details: IC50 at apparent Km for ATP (20 μM), 2.5 h reaction; read-out: Inhibition of TBK1
T1 sequence (Q9UHD2 1-729): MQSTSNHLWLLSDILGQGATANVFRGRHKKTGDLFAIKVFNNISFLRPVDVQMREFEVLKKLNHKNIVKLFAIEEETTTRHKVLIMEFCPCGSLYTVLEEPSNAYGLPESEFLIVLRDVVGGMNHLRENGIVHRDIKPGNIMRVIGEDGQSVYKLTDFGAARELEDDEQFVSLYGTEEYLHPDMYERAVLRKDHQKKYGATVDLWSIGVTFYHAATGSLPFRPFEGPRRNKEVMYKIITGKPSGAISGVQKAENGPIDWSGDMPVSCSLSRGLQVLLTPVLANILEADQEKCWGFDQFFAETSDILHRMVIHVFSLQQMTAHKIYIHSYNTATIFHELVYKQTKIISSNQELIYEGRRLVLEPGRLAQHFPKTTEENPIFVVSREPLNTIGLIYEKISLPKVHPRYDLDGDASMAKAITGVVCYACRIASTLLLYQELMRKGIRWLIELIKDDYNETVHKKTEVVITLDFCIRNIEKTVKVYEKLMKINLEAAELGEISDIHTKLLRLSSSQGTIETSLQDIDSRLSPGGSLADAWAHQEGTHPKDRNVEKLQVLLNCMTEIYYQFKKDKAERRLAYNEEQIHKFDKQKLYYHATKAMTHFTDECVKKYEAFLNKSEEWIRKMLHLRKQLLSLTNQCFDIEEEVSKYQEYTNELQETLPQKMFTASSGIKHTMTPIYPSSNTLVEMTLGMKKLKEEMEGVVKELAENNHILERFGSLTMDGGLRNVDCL
Procedure: (§1) Compounds of the invention (synthesised as described above), and Comparative Examples 1 to 5 (which may be synthesised as described in WO 2014/128486), were tested for potency against the IKKε and TBK1 enzyme as follows:
(§2) Inhibition studies were performed using a time-resolved fluorescence-based Lanthascreen™ assay. Phosphorylation of a fluorescein-labelled substrate peptide is measured using terbium-labeled phosphospecific antibodies. Terbium is excited at 340 nm and the FRET energy transfer to fluorescein is measured at 495 and 520 nm. The emission ratio between 520 and 495 is a measure of the level of phosphorylation of the substrate by the kinase.
(§3) Kinase inhibition assays (5 μL) were performed at 20° C. in 384-well plate format. Compound IC50 values were determined at the apparent Km for ATP (20 μM) based on a […] assay (Invitrogen) using 8 or 10 point curves in duplicate. The final reaction conditions contained 380 nM fluorescein-IkBα substrate (DRHDSGLDSMKDE) [SEQ ID No 1], 20 μM ATP, 0.9-3 nM IKKε or or 6-8 nM TBK1 kinase respectively, and 1% DMSO in kinase assay buffer consisting of 50 mM HEPES (pH 7.5), 10 mM MgCl2, 1 mM EGTA, 0.05% Brij-35.
(§4) Compound dilutions were prepared from 10 mM DMSO stocks by dilution into DMSO. Compound dilution series were further diluted in kinase assay buffer to give a 5% DMSO stock, the final concentration in the assay being 1% DMSO.
(§5) The kinase phosphorylation assay was initiated by the addition of the kinase and the reaction was allowed to proceed for 1 h or 2.5 h for IKKε and TBK1 kinase respectively. Both conditions were within the linearity of the phosphorylation. The reaction was stopped by the addition of 10 mM EDTA, and phosphorylation was detected after a 1 hour incubation with 1.5 nM terbium-labelled antibody against phosphorylation at Serine 32 on the IkBα peptide, both in TR-FRET dilution buffer (Invitrogen).

[4] = molecular target: T2, IKKε (Homo sapiens, UniProt Q14164); assay: IKKε enzyme potency, time-resolved fluorescence Lanthascreen kinase assay; type: biochemical; details: IC50 at apparent Km for ATP (20 μM), 1 h reaction; read-out: Inhibition of IKKε
T2 sequence (Q14164 1-716): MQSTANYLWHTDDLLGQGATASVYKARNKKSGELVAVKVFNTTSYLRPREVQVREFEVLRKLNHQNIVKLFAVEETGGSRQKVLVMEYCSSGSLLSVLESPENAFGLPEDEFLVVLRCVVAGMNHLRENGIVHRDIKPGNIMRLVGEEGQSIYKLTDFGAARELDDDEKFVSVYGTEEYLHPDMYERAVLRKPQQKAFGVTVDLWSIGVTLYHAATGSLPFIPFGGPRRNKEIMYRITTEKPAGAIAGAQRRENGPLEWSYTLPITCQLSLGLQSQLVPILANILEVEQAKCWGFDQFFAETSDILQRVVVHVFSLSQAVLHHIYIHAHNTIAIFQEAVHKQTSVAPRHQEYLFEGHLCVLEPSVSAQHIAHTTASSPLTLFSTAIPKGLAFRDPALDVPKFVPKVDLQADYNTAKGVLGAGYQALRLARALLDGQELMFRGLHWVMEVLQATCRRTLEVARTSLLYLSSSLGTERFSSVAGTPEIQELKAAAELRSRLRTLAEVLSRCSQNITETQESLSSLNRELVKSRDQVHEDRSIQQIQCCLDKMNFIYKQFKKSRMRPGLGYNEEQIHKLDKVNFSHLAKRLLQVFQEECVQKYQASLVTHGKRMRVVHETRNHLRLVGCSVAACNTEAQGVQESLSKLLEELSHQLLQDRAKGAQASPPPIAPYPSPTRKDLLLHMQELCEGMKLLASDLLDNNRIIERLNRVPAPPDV
Procedure: as §1, §2, §3, §4, §5

[5] = molecular target: T3, SIK2 (Homo sapiens, UniProt Q9H0K1); assay: SIK2 radiolabelled 33P-ATP Kinase HotSpot assay (Reaction Biology Corporation); type: biochemical; details: IC50 at apparent Km for ATP (30 μM), 20 μM peptide substrate; read-out: Inhibition of SIK2
T3 construct: purchased Reaction Biology Corporation
Procedure: SIK2 was measured using radiolabelled ^33P-ATP using the Kinase HotSpot℠ technology of Reaction Biology Corporation. The peptide AMARAASAALAARRR [SEQ ID No 2] at a concentration of 20 μM was used as the substrate. IC50 values were determined at the apparent Km for ATP (30 μM)

[6] = mouse, Table 3, comparative examples, IV typically 0.5 mg/Kg
[7] = mouse, plasma, Table 3, comparative examples, IV typically 0.5 mg/Kg, read-out: Vd
[8] = Table 3, comparative examples, IV typically 0.5 mg/Kg
[9] = Table 2, IV typically 0.5 mg/Kg

T3 sequence (Q9H0K1 whole entry): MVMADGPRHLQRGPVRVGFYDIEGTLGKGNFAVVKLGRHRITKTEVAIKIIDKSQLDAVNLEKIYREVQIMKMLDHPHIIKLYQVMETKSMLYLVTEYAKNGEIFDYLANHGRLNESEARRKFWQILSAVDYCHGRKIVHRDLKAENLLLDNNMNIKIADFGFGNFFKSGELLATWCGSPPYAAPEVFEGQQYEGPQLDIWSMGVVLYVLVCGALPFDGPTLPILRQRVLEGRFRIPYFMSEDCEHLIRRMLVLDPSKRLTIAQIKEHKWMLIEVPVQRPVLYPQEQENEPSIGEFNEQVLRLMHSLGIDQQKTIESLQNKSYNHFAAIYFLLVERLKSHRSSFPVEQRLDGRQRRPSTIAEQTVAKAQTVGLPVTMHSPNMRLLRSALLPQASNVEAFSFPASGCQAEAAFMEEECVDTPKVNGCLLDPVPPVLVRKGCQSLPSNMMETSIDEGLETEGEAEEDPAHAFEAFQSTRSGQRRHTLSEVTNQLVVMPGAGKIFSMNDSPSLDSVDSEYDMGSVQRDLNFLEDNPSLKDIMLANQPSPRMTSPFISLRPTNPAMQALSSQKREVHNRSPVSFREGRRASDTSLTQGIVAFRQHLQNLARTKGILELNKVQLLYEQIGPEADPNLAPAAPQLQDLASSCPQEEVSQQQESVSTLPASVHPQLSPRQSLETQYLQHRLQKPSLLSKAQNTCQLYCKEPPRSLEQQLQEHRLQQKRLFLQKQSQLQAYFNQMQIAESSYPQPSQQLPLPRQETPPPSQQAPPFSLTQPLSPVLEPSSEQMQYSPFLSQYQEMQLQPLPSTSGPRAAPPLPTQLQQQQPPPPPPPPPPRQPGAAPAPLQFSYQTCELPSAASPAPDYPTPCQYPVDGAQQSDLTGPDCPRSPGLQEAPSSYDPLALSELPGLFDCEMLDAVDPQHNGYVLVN

Structure (SMILES) | Human Heps (μL/min/10^6 cells) [1] [μL/min/10^6 cells] | half-life [2, 6] [min] | IC50 [3] [µM] | Human hepatocyte stability (μL/min/10^6 cells) [1] [μL/min/10^6 cells] | IC50 [4] [µM] | Vd [2, 9] [L/kg] | t½ [2, 9] [min] | also measured
N#Cc1cc(-c2ccnc(Nc3ccc(CN4CCOCC4)nc3)n2)cnc1N1CC[C@H](F)C1 [Comp. Ex. 1] | 13 | 30 |  |  |  |  |  | Vd [2, 7]: 0.3 L/kg
N#Cc1cc(-c2ccnc(Nc3ccc(CN4CCNC(=O)C4)nc3)n2)cnc1N1CC[C@H](F)C1 [Comp. Ex. 2] | ≤6 |  |  |  |  |  |  | Vd [2, 8]: 0.74 L/kg; t½ [2, 8]: 40.8 min
CN1CCN(c2ccc(Nc3nccc(-c4cnc(N5CC[C@H](F)C5)c(C#N)c4)n3)cn2)CC1 [Comp. Ex. 3] | 48 |  |  |  |  |  |  | 
N#Cc1cc(-c2ccnc(Nc3ccc(NC(=O)CN4CCOCC4)nc3)n2)cnc1N1CC[C@H](F)C1 [Comp. Ex. 4] | 6 | 30 |  |  |  |  |  | Vd [2, 8]: 0.54 L/kg
N#Cc1cc(-c2ccnc(Nc3ccnc(NC(=O)CN4CCOCC4)c3)n2)cnc1N1CC[C@H](F)C1 [Comp. Ex. 5] | 6 | 42 |  |  |  |  |  | Vd [2, 7]: 0.7 L/kg
CCN1CCN(Cc2ccc(Nc3nccc(-c4cnc(N5CC[C@H](F)C5)c(C#N)c4)n3)cn2)CC1 [Ex. No. 1, 5-{2-[6-(4-Ethyl-piperazin-1-ylmethyl)-pyridin-3-ylamino]-pyrimidin-4-yl}-2-((S)-3-fluoro-pyrrolidin-1-yl)-nicotinonitrile] |  |  | 0.009 | 11 | 0.016 | 3.3 | 102 | IC50 [5]: 0.007 µM
CCN1CCN(Cc2ccc(Nc3nccc(-c4cnc(N5CC[C@@H](F)C5)c(C#N)c4)n3)cn2)CC1 [Ex. No. 2, 5-{2-[6-(4-Ethyl-piperazin-1-ylmethyl)-pyridin-3-ylamino]-pyrimidin-4-yl}-2-((R)-3-fluoro-pyrrolidin-1-yl)-nicotinonitrile] |  |  | 0.02 | 8 | 0.021 | 5.6 | 132 | 
CN1CCN(Cc2ccc(Nc3nccc(-c4cnc(N5CC[C@H](F)C5)c(C#N)c4)n3)cn2)CC1 [Ex. No. 3, 2-((S)-3-Fluoro-pyrrolidin-1-yl)-5-{2-[6-(4-methyl-piperazin-1-ylmethyl)-pyridin-3-ylamino]-pyrimidin-4-yl}-nicotinonitrile] |  |  | 0.017 | 7 | 0.024 | 4.6 | 144 | 
